Test results from patent publication US20160090556A1, “PRODUCTS COMPRISING MALODOR REDUCTION MATERIALS” (The Procter & Gamble Company, priority 2014, published 2016).
Where two headings read alike, the source gives them in different places.

Assay: Liquid dish neat product liquid-air partition coefficient
Assay type: physicochemical
Settings: for Comment Code: Log of liquid dish neat product liquid-air partition coefficient: code letters K, L
[1] = class code letter within Comment Code

With `CCCC(=O)OC1CC2CC1C1CC=CC21` (stereo not drawn) [Material 484] as the compound, how does the “Log of liquid dish neat product liquid-air partition coefficient (Comment Code K/L)” value (from here on “Log … (Comment Code K/L)”) [1] read?
Its value is “K (Log of liquid dish neat product liquid-air partition coefficient greater than or equal to −7)”.

And the “Comment Code: Log of liquid dish neat product liquid-air partition coefficient” value (shortened to “Comment Code: Log”)?
The value was “K (Log of liquid dish neat product liquid-air partition coefficient greater than or equal to −7)”.

With `CCCCCCCCCC(C)C(OC)OC` (stereo not drawn) [Material 101] as the compound, how does the “Log … (Comment Code K/L)” value [1] read?
The value was “K (Log of liquid dish neat product liquid-air partition coefficient greater than or equal to −7)”.

Which “Log … (Comment Code K/L)” value [1] does the source give for `O=C1CCCCCCCCCCCCCCO1` [Material 370] here?
Its value is “K (Log of liquid dish neat product liquid-air partition coefficient greater than or equal to −7)”.

With `CC1=CCC(=C(C)C)CCC(C)=CCC1` [Material 295] as the compound, how does the “Log … (Comment Code K/L)” value [1] read?
Its value is “K (Log of liquid dish neat product liquid-air partition coefficient greater than or equal to −7)”.

Which “Log … (Comment Code K/L)” value [1] does the source give for `CC(=CC#N)CCc1ccccc1` [Material 505] here?
Its value is “K (Log of liquid dish neat product liquid-air partition coefficient greater than or equal to −7)”.

Which “Comment Code: Log” value does the source give for `C=CC(C)(C#N)Cc1ccccc1` (stereo not drawn) [Material 504] here?
The value was “K (Log of liquid dish neat product liquid-air partition coefficient greater than or equal to −7)”.

For `CC(C)C1OC2(CCCC2)OCC1(C)C` (stereo not drawn) [Material 25], which “Log … (Comment Code K/L)” value [1] is on record?
Its value is “K (Log of liquid dish neat product liquid-air partition coefficient greater than or equal to −7)”.

For `CC1CCCCCCCCCCCCC(=O)C1` (stereo not drawn) [Material 79], which “Log … (Comment Code K/L)” value [1] is on record?
The value was “K (Log of liquid dish neat product liquid-air partition coefficient greater than or equal to −7)”.

Which “Log … (Comment Code K/L)” value [1] does the source give for `Cc1ccc2c(c1)OCC(=O)CO2` [Material 17] here?
Its value is “K (Log of liquid dish neat product liquid-air partition coefficient greater than or equal to −7)”.

For `COc1ccc(COC=O)cc1` [Material 665], which “Comment Code: Log” value is on record?
The value was “K (Log of liquid dish neat product liquid-air partition coefficient greater than or equal to −7)”.

Which “Comment Code: Log” value does the source give for `C=CCOC(=O)COc1ccccc1` [Material 743] here?
Its value is “K (Log of liquid dish neat product liquid-air partition coefficient greater than or equal to −7)”.

For `CC/C=C\CCOC(=O)c1ccccc1` [Material 541], which “Log … (Comment Code K/L)” value [1] is on record?
Its value is “K (Log of liquid dish neat product liquid-air partition coefficient greater than or equal to −7)”.

What does the source list for `C[C@@H]1CC[C@H]2C(C)(C)[C@H]3C[C@@]12CC1OC(C)(C)OC13C` (stereo partly drawn) [Material 674]?
Log of liquid dish neat product liquid-air partition coefficient (Comment Code K/L): K (Log of liquid dish neat product liquid-air partition coefficient greater than or equal to −7); Comment Code: Log of liquid dish neat product liquid-air partition coefficient: K (Log of liquid dish neat product liquid-air partition coefficient greater than or equal to −7)

Which “Log … (Comment Code K/L)” value does the source give for `CC(=O)c1cc(C(C)(C)C)cc2c1CCC2(C)C` [Material 563] here?
Its value is “K (Log of liquid dish neat product liquid-air partition coefficient greater than or equal to −7)”.

Which “Log … (Comment Code K/L)” value does the source give for `CC1=CC2CC(C3OCCO3)C1CC2C(C)C` (stereo not drawn) [Material 912] here?
Its value is “K (Log of liquid dish neat product liquid-air partition coefficient greater than or equal to −7)”.

Which “Log … (Comment Code K/L)” value does the source give for `CC(C)=CCC/C(C)=C/CO` [Material 1082] here?
Its value is “K (Log of liquid dish neat product liquid-air partition coefficient greater than or equal to −7)”.

For `CCCCC/C=C/C=C\C(=O)OCC` [Material 942], which “Log … (Comment Code K/L)” value is on record?
The value was “K (Log of liquid dish neat product liquid-air partition coefficient greater than or equal to −7)”.

With `CC(C)=CCC/C(C)=C\COC=O` [Material 59] as the compound, how does the “Comment Code: Log” value read?
Its value is “K (Log of liquid dish neat product liquid-air partition coefficient greater than or equal to −7)”.

With `O=C1CCCCCCCCCCCCCCCO1` [Material 277] as the compound, how does the “Log … (Comment Code K/L)” value [1] read?
Its value is “K (Log of liquid dish neat product liquid-air partition coefficient greater than or equal to −7)”.

For `O=COCC=Cc1ccccc1` [Material 551], which “Log … (Comment Code K/L)” value [1] is on record?
Its value is “K (Log of liquid dish neat product liquid-air partition coefficient greater than or equal to −7)”.

Which “Log … (Comment Code K/L)” value does the source give for `CC1=CCCC2(C)CCC(C(C)(C)O)CC12` (stereo not drawn) [Material 775] here?
Its value is “K (Log of liquid dish neat product liquid-air partition coefficient greater than or equal to −7)”.

What about the “Comment Code: Log” value of the same compound?
Its value is “K (Log of liquid dish neat product liquid-air partition coefficient greater than or equal to −7)”.

With `C=C1CC[C@@H]2[C@H]([C@H]3[C@H]1CC[C@]3(C)O)C2(C)C` [Material 1035] as the compound, how does the “Log … (Comment Code K/L)” value read?
The value was “K (Log of liquid dish neat product liquid-air partition coefficient greater than or equal to −7)”.

What about the “Comment Code: Log” value of the same compound?
The value was “K (Log of liquid dish neat product liquid-air partition coefficient greater than or equal to −7)”.

Which “Log … (Comment Code K/L)” value does the source give for `c1ccc(CCOC2CCCCC2)cc1` [Material 953] here?
The value was “K (Log of liquid dish neat product liquid-air partition coefficient greater than or equal to −7)”.

With `COc1cc(C)ccc1O` [Material 492] as the compound, how does the “Comment Code: Log” value read?
The value was “K (Log of liquid dish neat product liquid-air partition coefficient greater than or equal to −7)”.

Which “Comment Code: Log” value does the source give for `CC(C)=CCC/C(C)=C/COC=O` [Material 306] here?
Its value is “K (Log of liquid dish neat product liquid-air partition coefficient greater than or equal to −7)”.

Which “Log … (Comment Code K/L)” value does the source give for `CC(C)=CCCC(C)=C1CC=C(C)CC1` [Material 608] here?
The value was “K (Log of liquid dish neat product liquid-air partition coefficient greater than or equal to −7)”.

With `CC1C(C)(C)C2=C(C(=O)CCC2)C1(C)C` (stereo not drawn) [Material 572] as the compound, how does the “Log … (Comment Code K/L)” value read?
Its value is “K (Log of liquid dish neat product liquid-air partition coefficient greater than or equal to −7)”.

With `CC(C)=CCC=C(C)C1CC=C(C)CC1` (stereo not drawn) [Material 719] as the compound, how does the “Log … (Comment Code K/L)” value read?
The value was “K (Log of liquid dish neat product liquid-air partition coefficient greater than or equal to −7)”.

With `CCCCCCCCCCCC(OC)OC` [Material 421] as the compound, how does the “Log … (Comment Code K/L)” value [1] read?
The value was “K (Log of liquid dish neat product liquid-air partition coefficient greater than or equal to −7)”.

For `N#C/C=C/c1ccccc1` [Material 556], which “Comment Code: Log” value is on record?
The value was “K (Log of liquid dish neat product liquid-air partition coefficient greater than or equal to −7)”.

For `CCCCCC(=O)Oc1ccc(C)cc1` [Material 939], which “Log … (Comment Code K/L)” value is on record?
Its value is “K (Log of liquid dish neat product liquid-air partition coefficient greater than or equal to −7)”.

Which “Log … (Comment Code K/L)” value [1] does the source give for `CCc1ccc(CC(C)(C)C#N)cc1` [Material 361] here?
Its value is “K (Log of liquid dish neat product liquid-air partition coefficient greater than or equal to −7)”.

With `CC1(CO)CC1CC1CC2CC2(C)C1(C)C` (stereo not drawn) [Material 185] as the compound, how does the “Log … (Comment Code K/L)” value [1] read?
Its value is “K (Log of liquid dish neat product liquid-air partition coefficient greater than or equal to −7)”.

And the “Comment Code: Log” value?
The value was “K (Log of liquid dish neat product liquid-air partition coefficient greater than or equal to −7)”.

For `CC1CCOC(c2ccccc2)C1` (stereo not drawn) [Material 420], which “Comment Code: Log” value is on record?
Its value is “K (Log of liquid dish neat product liquid-air partition coefficient greater than or equal to −7)”.

For `CCOc1cc(COC)ccc1O` [Material 115], which “Comment Code: Log” value is on record?
The value was “K (Log of liquid dish neat product liquid-air partition coefficient greater than or equal to −7)”.

With `CCCC(=O)OCCc1ccccc1` [Material 831] as the compound, how does the “Log … (Comment Code K/L)” value read?
Its value is “K (Log of liquid dish neat product liquid-air partition coefficient greater than or equal to −7)”.

For `CC=CC(=O)C1C(C)C=CCC1(C)C` (stereo not drawn) [Material 466], which “Log … (Comment Code K/L)” value [1] is on record?
Its value is “K (Log of liquid dish neat product liquid-air partition coefficient greater than or equal to −7)”.

Which “Log … (Comment Code K/L)” value [1] does the source give for `c1ccc(CCc2ccccc2)cc1` [Material 457] here?
The value was “K (Log of liquid dish neat product liquid-air partition coefficient greater than or equal to −7)”.

For `C=CC(C)(CCC=C(C)C)OC=O` (stereo not drawn) [Material 150], which “Comment Code: Log” value is on record?
The value was “K (Log of liquid dish neat product liquid-air partition coefficient greater than or equal to −7)”.

For `C=CCOC(=O)COCCC(C)C` [Material 748], which “Log … (Comment Code K/L)” value is on record?
Its value is “K (Log of liquid dish neat product liquid-air partition coefficient greater than or equal to −7)”.

For `CC(=O)C1CC/C(C)=C\CC/C(C)=C\C/C=C/1C` (stereo not drawn) [Material 1095], which “Log … (Comment Code K/L)” value is on record?
Its value is “K (Log of liquid dish neat product liquid-air partition coefficient greater than or equal to −7)”.

For `C=C1C=CC(C(C)C)CCC(C)=CCC1` (stereo not drawn) [Material 296], which “Log … (Comment Code K/L)” value [1] is on record?
The value was “K (Log of liquid dish neat product liquid-air partition coefficient greater than or equal to −7)”.

With `CC(=O)OCC=C(C)CCC=C(C)CCC=C(C)C` [Material 368] as the compound, how does the “Log … (Comment Code K/L)” value [1] read?
Its value is “K (Log of liquid dish neat product liquid-air partition coefficient greater than or equal to −7)”.

Which “Log … (Comment Code K/L)” value [1] does the source give for `CCCCCCCCCCCCOC(C)=O` [Material 175] here?
The value was “K (Log of liquid dish neat product liquid-air partition coefficient greater than or equal to −7)”.

With `C=CCCCCCCCCC(=O)OCCCC` [Material 599] as the compound, how does the “Log … (Comment Code K/L)” value read?
The value was “K (Log of liquid dish neat product liquid-air partition coefficient greater than or equal to −7)”.

With `COc1ccccc1-c1ccccc1` [Material 22] as the compound, how does the “Log … (Comment Code K/L)” value [1] read?
The value was “K (Log of liquid dish neat product liquid-air partition coefficient greater than or equal to −7)”.

Which “Log … (Comment Code K/L)” value [1] does the source give for `CC1=CC2(C=CC(C)O2)C(C(C)C)CC1` (stereo not drawn) [Material 68] here?
Its value is “K (Log of liquid dish neat product liquid-air partition coefficient greater than or equal to −7)”.

Which “Log … (Comment Code K/L)” value [1] does the source give for `CC(C)C(=O)OCC=Cc1ccccc1` [Material 550] here?
Its value is “K (Log of liquid dish neat product liquid-air partition coefficient greater than or equal to −7)”.

With `CC=Cc1ccc(OCC)c(O)c1` [Material 1112] as the compound, how does the “Comment Code: Log” value read?
The value was “K (Log of liquid dish neat product liquid-air partition coefficient greater than or equal to −7)”.
